Laboratory results reported in patent publication US10413517B2, “Composition and method for the treatment of neurological diseases and cerebral injury” (UNIVERSITY OF NOTRE DAME DU LAC, priority 2014, dated 2019).

Key:
histone H3 and H4 = assay: Histone acetylation in the brain (western blot); type: in vivo, mouse; conditions: within an hour of i.p. administration; Vo 50 mg/Kg in PEG; HPBCD 2000 mg/Kg
Description: Npc1^nmf164 mice (6-7 weeks) were injected with either Vorinostat (50 mg/kg) or TCF through i.p route. Mice were sacrificed 1 hpi (1 hour post-injection) by asphyxiation using CO2. After homogenization of tissue, Histones were extracted using EpiQuik Total Histone extraction kit (Epigentek, NY, USA) as per manufacturer's instructions. Antibodies to Histone H3 (Lys14) and H4 (Lys5/8/12/16) from Millipore (CA, USA) were used in western blotting.

Npc1^nmf164 mice = assay: Survival of drug treated NPC mice (Kaplan-Meier); type: in vivo, mouse; conditions: for median life span: males and females combined, weekly i.p., Vo 50 mg/Kg in PEG, 2×HPBCD 4000 mg/Kg, TCF (Vo 50 mg/Kg+HPBCD 2000 mg/Kg+PEG); for effect on animal survival: i.p. once weekly from day 21
Excerpt: The present study, inter alia, evaluated the efficacy of Vorinostat (Vo) an HDACi for the treatment of Niemann-Pick Type C disease in a mouse model. […] We hypothesized poor solubility, reduced plasma exposure and penetration across the Blood Brain Barrier (BBB) of Vo to be the possible reasons behind its ineffectiveness in the animals. To overcome these limitations, we used HPBCD as an excipient and made a formulation that contained Vo, HPBCD and polyethylene glycol (PEG) and named it Triple combination Formulation (TCF). The effect of TCF was evaluated using different molecular, biochemical, histological and neurobehavioral measures in NPC mice at indicated ages. For survival and neurobehavioral testing 8-10 mice were used in groups injected with drug. At least 6 mice were used in vehicle treated group. End point for survival studies were set at ≥30% weight loss. For molecular, biochemical, histological analyses at least 3-4 mice were used with at least two technical replicates in each assay. Animals were randomly assigned to treatment groups. Equal numbers of males and females were included in each group. Two independent PK experiments in mice were done each containing 5 mice in a group. The reliability and robustness of neurobehavioral scoring system was evaluated by two blinded investigators. Investigators were blinded to the drug injections while assessing the neurobehavioral functions. Determination of Vo in plasma samples were done by blinded investigators at the Metabolite Profiling Facility, Purdue University, IN, USA. Sample sizes were chosen based on previous experience or similar studies conducted by others. All data points were used in the statistical analyses.
Npc1^nmf164, BALB/c strain carrying an aspartate to glycine mutation at position 1005 (D1005G) in Npc1 gene was used as NPC disease model. (Maue, R. A., et al., Hum Mol Genet 21: 730-750 (2012)).When animals were sick and unable to reach the food provided on the holder, regular food (2019 Teklad diet, Harlan Laboratories, Indianapolis, Ind.) was replaced with DietGel 76A (Clear H2O, Portland, Me.). Studies with mice were performed with approval and authorization from the Institutional Animal Care and Use Committee of University of Notre Dame, Indiana, USA.
Vorinostat (50 mg/Kg)—Vorinostat was first dissolved in DMSO (100 mg/ml) and then diluted with 9 volume of Polyethylene Glycol 400 (PEG). This drug solution was named as ‘solution A’. Solution A was diluted with equal volume of water where the final concentration of each component was as follows; Vorinostat, 5 mg/ml; DMSO, 5% and PEG, 45%. Mice were given weekly intraperitoneal (i.p) injections starting at 21 days. Vorinostat (100 mg/Kg)—Vorinostat was first dissolved in DMSO (200 mg/ml) and then mixed with 9 volumes of PEG. Rest of the methods and injections plan were as described above. HPBCD (4000 mg/Kg)—40% HPBCD solution prepared in water. Mice were given weekly i.p injections starting at 7 days. HPBCD (2000 mg/Kg)—20% HPBCD solution prepared in water. Mice were given weekly i.p injections starting at 7 days. TCF (Vorinostat, 50 mg/Kg+HPBCD, 2000 mg/Kg, DMSO, 5%+PEG, 45%)—To prepare the formulation, the ‘solution A’ was first prepared as described above and equal volume of 40% HPBCD solution was slowly layered on top of it. The solution was gently mixed for 10 min at RT on rocker set at medium speed. The final concentration of each component in the formulation was as follows; Vorinsotat, 5 mg/ml; DMSO 5%; PEG, 45%; and HPBCD, 20%. Mice were given two i.p doses of HPBCD (2000 mg/Kg) at 7 and 15 days. Starting from 21 days mice were given weekly i.p injection of TCF. Vehicle control (5% DMSO and 45% PEG)—It was made by mixing 1 volume of DMSO with 9 volume of PEG and then diluted with equal volume of water. Mice were given weekly i.p injection starting from 21 days. All drug solutions were stored at −80° C. Fresh vials of frozen stock were thawed for injection on different days. […]

[1] = cited from earlier work

| SMILES | acetylation of histone 3 or 4 (H3 or H4) in the brain (in words) (histone H3 and H4) | increase of survival relative to vorinostat in PEG (Npc1^nmf164 mice; 4000 mg/Kg weekly i.p., 180 vs 134 d) | median life span (Npc1^nmf164 mice) [days] | solubility in aqueous solution [1] | effect on animal survival (Npc1^nmf164 mice; vorinostat 50 mg/Kg in PEG) | effect on animal survival (Npc1^nmf164 mice; vorinostat 50 mg/Kg in PEG, listed as Vorinostat) | effect on animal survival (Npc1^nmf164 mice; vorinostat 100 mg/Kg in PEG) |
| --- | --- | --- | --- | --- | --- | --- | --- |
| CC(O)COC[C@H]1O[C@@H]2O[C@H]3[C@H](O)[C@@H](O)[C@@H](O[C@H]4[C@H](O)[C@@H](O)[C@@H](O[C@H]5[C@H](O)[C@@H](O)[C@@H](O[C@H]6[C@H](O)[C@@H](O)[C@@H](O[C@H]7[C@H](O)[C@@H](O)[C@@H](O[C@H]8[C@H](O)[C@@H](O)[C@@H](O[C@H]1[C@H](O)[C@H]2O)O[C@@H]8COCC(C)O)O[C@@H]7COCC(C)O)O[C@@H]6COCC(C)O)O[C@@H]5COCC(C)O)O[C@@H]4COCC(C)O)O[C@@H]3COCC(C)O (stereo partly drawn) [HPBCD, 2-Hydroxypropyl-β-cyclodextrin] | neither vehicle control (PEG+DMSO) nor HPBCD stimulated significant acetylation | increased survival by a third | 180 | – | – | – | – |
| O=C(CCCCCCC(=O)Nc1ccccc1)NO [vorinostat] | low levels of acetylation | – | 134 | poorly soluble in aqueous solution | no significant survival benefit | no significant beneficial effect on animal survival | no survival benefit |
